Assay results taken from paper PMC6973281 (2019).

How the values were obtained:
[1] = tested on: 22AG (DNA, G4) AGGGTTAGGGTTAGGGTTAGGG; assay: spectrophotometric titration; conditions: K+ 73 mM; K-phosphate buffer pH 7.0, 5 % v/v DMSO, 20 °C; 5 μM compound; isotherm could not be fitted
[2] = tested on: 22AG (DNA, G4) AGGGTTAGGGTTAGGGTTAGGG; assay: spectrophotometric titration, independent-site fit; conditions: K+ 73 mM; K-phosphate buffer pH 7.0, 5 % v/v DMSO, 20 °C; 5 μM compound; unit not given

Compound | binding [1] | K 22AG [2]
CCOC(=O)c1csc(/N=N/c2nc(C(=O)OCC)c(NCCCN(C)C)s2)n1 | weak | –
CCOC(=O)c1nc(/N=N/c2nc(C(=O)OCC)c(NCCCN(C)C)s2)sc1NCCCN(C)C | – | 2.4×10^4
